Values quoted from earlier work in patent publication US10179139B2, “Pharmaceutical composition” (CIPLA Limited, priority 2010, dated 2019).

Conditions: in vivo

Compound | duration of action
CCc1cc2c(cc1CC)CC(NC[C@H](O)c1ccc(O)c3[nH]c(=O)ccc13)C2 [Indacaterol, (R)-5-[2-[(5,6-Diethyl-2,3-dihydro-1H-inden-2-yl)amino]-1-hydroxyethyl]-8-hydroxyquinolin-2(1H)-one] | more than 24 hrs
C[N+]1(C)[C@@H]2C[C@@H](OC(=O)C(O)(c3cccs3)c3cccs3)C[C@H]1[C@@H]1O[C@@H]12 [Tiotropium, (1α, 2β, 4β, 5α, 7β)-7-[(Hydroxydi-2-thienylacetyl)oxy]-9,9-dimethyl-3-oxa-9-azoniatricyclo[3.3.1.0^2,4]nonane bromide monohydrate] | up to 32 hours
